Molecular target: human β2 adrenergic receptor (Homo sapiens, UniProt P07550)
Assay: Radioligand binding assay for human β2 adrenergic receptor (Assay Test Procedure A)
Set-up: expressed in transfected cells; host or cells: CHO cells, membranes
Conditions: receptor subtype selectivity, human β1 versus β2
Protocol: Chinese hamster ovarian (CHO) cell lines stably expressing cloned human β1, β2 or β3 adrenergic receptors, respectively, were grown to near con fluency in Hams F-12 media with 10% FBS in the presence of 500 μg/mL Geneticin. The cell monolayer was lifted with 2 mM EDTA in PBS. Cells were pelleted by centrifugation at 1,000 rpm, and cell pellets were either stored frozen at −80° C. or membranes were prepared immediately for use. For preparation of β1 and β2 receptor expressing membranes, cell pellets were re-suspended in lysis buffer (10 mM HEPES/HCl, 10 mM EDTA, pH 7.4 at 4° C.) and homogenized using a tight-fitting Dounce glass homogenizer (30 strokes) on ice. […] The protein concentration of the membrane suspension was determined by the methods described in Lowry et al., 1951, Journal of Biological Chemistry, 193, 265; and Bradford, Analytical Biochemistry, 1976, 72, 248-54. […]
Binding assays were performed in 96-well microtiter plates in a total assay volume of 100 μL with 10-15 μg of membrane protein containing the human β1, β2 or β3 adrenergic receptors in assay buffer (75 mM Tris/HCl pH 7.4 at 25° C., 12.5 mM MgCl2, 1 mM EDTA, 0.2% BSA). […] Non-specific binding was determined in the presence of 10 μM propranolol. […] Filter plates were washed three times with filtration buffer (75 mM Tris/HCl pH 7.4 at 4° C., 12.5 mM MgCl2, 1 mM EDTA) to remove unbound radioactivity. […]

Sequence of human β2 adrenergic receptor (P07550 whole entry): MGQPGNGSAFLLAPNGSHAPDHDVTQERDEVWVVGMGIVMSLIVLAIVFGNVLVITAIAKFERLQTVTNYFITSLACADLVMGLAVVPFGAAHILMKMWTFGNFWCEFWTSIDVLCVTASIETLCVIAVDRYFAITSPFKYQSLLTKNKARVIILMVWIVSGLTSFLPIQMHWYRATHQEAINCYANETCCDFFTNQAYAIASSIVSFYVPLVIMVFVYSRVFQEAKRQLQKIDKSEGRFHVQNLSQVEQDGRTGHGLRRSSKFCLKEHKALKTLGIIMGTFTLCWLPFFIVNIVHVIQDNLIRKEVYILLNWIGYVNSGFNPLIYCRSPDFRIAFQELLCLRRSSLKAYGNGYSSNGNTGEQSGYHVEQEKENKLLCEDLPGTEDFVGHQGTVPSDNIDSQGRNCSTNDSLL

## NC(=O)C(c1ccccc1)(c1ccccc1)[C@@H]1CCN(CCCCCCCCCNCC(O)c2ccc(O)c3[nH]c(=O)ccc23)C1 (mixture of isomers) [Example 1, 2-((S)-1-{9-[2-Hydroxy-2-(8-hydroxy-2-oxo-1,2-dihydroquinolin-5-yl)ethylamino]-nonyl}pyrrolidin-3-yl)-2,2-diphenylacetamide]
  ratio of Ki(β1)/Ki(β2): greater than 8
